Results taken from ChEMBL document CHEMBL1201862, “PubChem BioAssay data set” (2004).
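Tested at 5 concentrations; 48 h exposure; 96-well plates; endpoints linearly interpolated, else capped at highest concentration. Here, GI50 denotes the concentration required for 50% inhibition of growth.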 Calls of active or inactive are those of the source. No stated cut-off is given here; in the data, active = GI50 up to about 1.1 µM and inactive = higher.

Experiments:
Experiment in all cases: NCI tumour cell line growth inhibition, 48 h
SF-295 = tested on: SF-295
SNB-75 = tested on: SNB-75
OVCAR-3 = tested on: OVCAR-3
NCI-H460 = tested on: NCI-H460
HOP-92 = tested on: HOP-92
NCI-H522 = tested on: NCI-H522
SF-539 = tested on: SF-539
UACC-62 = tested on: UACC-62
UACC-257 = tested on: UACC-257
SW-620 = tested on: SW-620
OVCAR-4 = tested on: OVCAR-4
OVCAR-8 = tested on: OVCAR-8
U-251 = tested on: U-251
SNB-19 = tested on: SNB-19
HOP-62 = tested on: HOP-62
DLD-1 = tested on: DLD-1
HCT-15 = tested on: HCT-15
IGROV-1 = tested on: IGROV-1
COLO 205 = tested on: COLO 205
HT-29 = tested on: HT-29
LXFL 529 = tested on: LXFL 529
LOX IMVI = tested on: LOX IMVI
SF-268 = tested on: SF-268
CAKI-1 = tested on: CAKI-1
RXF 631 = tested on: RXF 631
DMS-114 = tested on: DMS-114
CCRF-CEM = tested on: CCRF-CEM
M19-MEL = tested on: M19-MEL
SNB-78 = tested on: SNB-78
HL-60 = tested on: HL-60
NCI-H226 = tested on: NCI-H226
K562 = tested on: K562
KM-20L2 = tested on: KM-20L2
ACHN = tested on: ACHN
SR = tested on: SR
A549 = tested on: A549
SK-MEL-2 = tested on: SK-MEL-2
DMS-273 = tested on: DMS-273
HCT-116 = tested on: HCT-116
SK-MEL-28 = tested on: SK-MEL-28
M14 = tested on: M14
EKVX = tested on: EKVX
SN12C = tested on: SN12C
OVCAR-5 = tested on: OVCAR-5
A498 = tested on: A498
HOP-18 = tested on: HOP-18
TK-10 = tested on: TK-10
SK-MEL-5 = tested on: SK-MEL-5
RPMI-8226 = tested on: RPMI-8226
Malme-3M = tested on: Malme-3M
SK-OV-3 = tested on: SK-OV-3
786-0 = tested on: 786-0
KM12 = tested on: KM12
UO-31 = tested on: UO-31
RXF 393 = tested on: RXF 393

Nc1nc(O)c2c(ncn2CC(O)CO)n1 (stereo not given)
GI50 (SF-295): > 100 µM (inactive) | GI50 (SNB-75): > 100 µM (inactive) | GI50 (OVCAR-3): > 100 µM (inactive) | GI50 (NCI-H460): > 100 µM (inactive) | GI50 (HOP-92): > 100 µM (inactive) | GI50 (NCI-H522): > 100 µM (inactive) | GI50 (SF-539): > 100 µM (inactive) | GI50 (UACC-62): > 100 µM (inactive) | GI50 (UACC-257): > 100 µM (inactive) | GI50 (SW-620): > 100 µM (inactive) | GI50 (OVCAR-4): > 100 µM (inactive) | GI50 (OVCAR-8): > 100 µM (inactive) | GI50 (U-251): > 100 µM (inactive) | GI50 (SNB-19): > 100 µM (inactive) | GI50 (HOP-62): > 100 µM (inactive) | GI50 (DLD-1): > 100 µM (inactive) | GI50 (HCT-15): > 100 µM | GI50 (IGROV-1): > 100 µM (inactive) | GI50 (COLO 205): > 100 µM (inactive) | GI50 (HT-29): > 100 µM (inactive) | GI50 (LXFL 529): > 100 µM (inactive) | GI50 (LOX IMVI): > 100 µM (inactive) | GI50 (SF-268): > 100 µM (inactive) | GI50 (CAKI-1): > 100 µM (inactive) | GI50 (RXF 631): > 100 µM (inactive) | GI50 (DMS-114): > 100 µM (inactive) | GI50 (CCRF-CEM): > 100 µM (inactive) | GI50 (M19-MEL): > 100 µM (inactive) | GI50 (SNB-78): > 100 µM (inactive) | GI50 (HL-60): > 100 µM (inactive) | GI50 (NCI-H226): > 100 µM (inactive) | GI50 (K562): > 100 µM (inactive) | GI50 (KM-20L2): > 100 µM (inactive) | GI50 (ACHN): > 100 µM (inactive) | GI50 (SR): > 100 µM (inactive) | GI50 (A549): > 100 µM (inactive) | GI50 (SK-MEL-2): > 100 µM (inactive) | GI50 (DMS-273): > 100 µM (inactive) | GI50 (HCT-116): > 100 µM (inactive) | GI50 (SK-MEL-28): > 100 µM (inactive) | GI50 (M14): > 100 µM (inactive) | GI50 (EKVX): > 100 µM (inactive) | GI50 (SN12C): > 100 µM (inactive) | GI50 (OVCAR-5): > 100 µM (inactive) | GI50 (A498): > 100 µM (inactive) | GI50 (HOP-18): > 100 µM (inactive) | GI50 (TK-10): > 100 µM (inactive) | GI50 (SK-MEL-5): > 100 µM (inactive) | GI50 (RPMI-8226): > 100 µM (inactive) | GI50 (Malme-3M): > 100 µM (inactive) | GI50 (SK-OV-3): > 100 µM (inactive) | GI50 (786-0): > 100 µM (inactive) | GI50 (KM12): > 100 µM (inactive) | GI50 (UO-31): > 100 µM (inactive) | GI50 (RXF 393): > 100 µM (inactive)
